In article PMC9802118, “C25-modified rifamycin derivatives with improved activity against Mycobacterium abscessus” (PNAS Nexus, 2022):

Assays:
[1] = molecular target: T1, ArrMsm (Mycolicibacterium smegmatis, UniProt A0QRS5); experiment: ITC (also nanoDSF; rpTLC ADP-ribosylation); assay type: binding
T1 construct: gene MSMEG_1221; purified wild-type enzyme, N-terminal His6 tag cleaved with C3 protease

[2] = molecular target: T2, ArrMab (Mycobacteroides abscessus, UniProt B1MH05); experiment: ITC (also nanoDSF; rpTLC ADP-ribosylation); assay type: binding
T2 construct: gene MAB_0591; purified wild-type enzyme, N-terminal His6 tag cleaved with C3 protease
T2 sequence (B1MH05 entry or part of it): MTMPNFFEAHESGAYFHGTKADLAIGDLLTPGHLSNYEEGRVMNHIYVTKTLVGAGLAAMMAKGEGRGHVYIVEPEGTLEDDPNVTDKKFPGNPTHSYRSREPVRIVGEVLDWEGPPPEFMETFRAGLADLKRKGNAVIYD

T1 sequence (A0QRS5 entry or part of it): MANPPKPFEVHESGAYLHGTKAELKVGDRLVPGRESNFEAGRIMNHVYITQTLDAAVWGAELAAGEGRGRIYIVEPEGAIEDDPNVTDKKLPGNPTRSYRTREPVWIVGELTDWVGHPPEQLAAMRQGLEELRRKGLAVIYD

`CO[C@H]1/C=C/O[C@@]2(C)Oc3c(C)c(O)c4c(O)c(c(/C=N/N5CCN(C)CC5)c(O)c4c3C2=O)NC(=O)/C(C)=C\C=C\[C@H](C)[C@H](O)[C@@H](C)[C@@H](O)[C@@H](C)[C@H](OC(C)=O)[C@@H]1C` [RMP, Rifampicin] showed a Kd [1] of 290 ± 20 nM and a Kd [2] of 4800 ± 3 nM.
